Entries after “also recorded” stand apart in the source; their conditions may differ. Read-outs that look alike come from different tables or passages of the source.

Data set [1] is classed as physicochemical. The conditions noted are these: 1 mg/mL in acetonitrile, −80 °C.
On the set-up of data set [2]: method as in PMID 22915796, PMID 27027316. The following applies: aldehyde bisulfite prodrug; cited from earlier work.
Data set [3] can be described thus: Crossover pharmacokinetic study in rats after IV or oral MPI8 sulfonate. The following applies: for AUC(0-t): read-out: AUC0−10 h; for Cmax: po. In kind it is in vivo, Sprague-Dawley rats. From the text:
The validated assay was applied in a crossover pharmacokinetic study to evaluate the oral bioavailability of MPI8 sulfonate in rats. The animal study protocol (#9132) was reviewed and approved by the Institutional Animal Care and Use Committee (IACUC) at Texas Southern University on 11 July 2020.
Male adult Sprague-Dawley rats were purchased from Envigo RMS (Indianapolis, IN, USA). Rats were cannulated via jugular vein a day before dosing. Three rats were intravenously administered a single dose of 5 mg/kg MPI8 sulfonate (5 mg/mL in 5% dextrose) via the jugular vein. Serial blood samples (about 0.1 mL) were collected from the cannulated jugular vein into heparin-coating tubes before dosing and at 2 min, 5 min, 15 min, 0.5 h, 1 h, 2 h, 4 h, 6 h, 8 h, 10 h, and 24 h time points after administration. After two weeks of washout period, the three rats were fasted overnight and orally administered a single dose of 50 mg/kg MPI8 sulfonate (20 mg/mL in water). Blood samples were collected before dosing and at 15 min, 0.5 h, 1 h, 1.5 h, 2 h, 2.5 h, 3 h, 4 h, 6 h, 8 h, 10 h, and 24 h time points after administration. Briefly, 12 time-point plasma samples from rats dosed intravenously and 13 time-point plasma samples from rats dosed orally were collected. Plasma samples were separated immediately by centrifugation of the blood samples at 13,000 rpm for 3 min and kept at −80 °C until analysis. The samples were processed following the procedure in Section 3.3.3. Three replicates for each time point were analyzed and the results were reported as mean values with standard deviation (SD) for each time point.
The pharmacokinetic parameters for each rat were estimated using Phoenix WinNonlin v8.3 software (Pharsight Corporation, Mountain View, CA, USA). Non-compartmental analysis was used to determine the pharmacokinetic parameters of MPI8. The pharmacokinetic parameters, including the area under the plasma concentration–time curve during the period of measurable observation (AUC0−10h), the area under the plasma concentration–time curve extrapolated to infinity (AUC0−inf), the apparent volume of distribution (Vz/F), the apparent clearance (CL/F), the total body mean residence time (MRT), and the terminal elimination half-life (T1/2) were estimated. The oral bioavailability (F) was calculated according to the following equation:(1) F=AUCoral×Dosei.v./AUCi.v.×Doseoral

For data set [4], the system named is SARS-CoV-2 (USA-WA1/2020). Also noted: method as in PMID 35229034. The following applies: SARS-CoV-2 (USA-WA1/2020) in Vero E6 cells; read-out: EC50 to neutralize SARS-CoV-2; cited from earlier work.
Data set [5] can be described thus: Stability of MPI8 in rat plasma (QC samples, LC-MS/MS). In kind it is in vitro ADME. The protocol: The quantification of MPI8 concentrations in extracted plasma samples was performed on a 6500+ Triple Quad LC-MS/MS System using a Kinetex HILIC Column (unbonded silica stationary phase, 2.6 µm, 50 × 2.1 mm, 100 Å, Phenomenex, CA, USA). The optimized method used binary gradient mobile phases with water (containing 1 mM ammonium acetate) as mobile phase A and acetonitrile as mobile phase B. A flow rate of 0.4 mL/min was used with an injection volume of 2 μL. The autosampler and oven temperature were set at 10 °C and 30 °C, respectively. The running time was 5 min. In this study, the HILIC column, widely considered as an NP column, was eluted in a typical RP time program of the gradient: Phase B was initially kept at 5% for 0.2 min, increased from 5% to 90% in the next 1.3 min, then held at 90% for 1 min, and then decreased to 5% in 1.5 min, and kept stably at 5% for 1 min. The unique behavior of MPI8 on a HILIC column, which resembles an RP characteristic, was most likely due to its hydrophobic nature.
Eighteen microliters of blank rat plasma, 2 μL of working solution (10×) (or 20 μL of rat plasma samples from pharmacokinetic studies), and 180 μL of acetonitrile (containing 5 ng/mL of IS) were vortex-mixed for 2 min and then centrifuged at 14,000 rpm for 20 min at 4 °C. Eighty μL of the supernatant were transferred to a sample vial for LC-MS/MS analysis. All samples were kept on ice during sample processing.
The stability of MPI8 was examined by keeping four replicates of the QC samples at room temperature and on ice for 4 h, in the auto-sampler tray at 10 °C for 24 h, and in a freezer at −80 °C for 3 weeks; the freeze-thaw stability was obtained over three freeze-thaw cycles, by thawing at 4 °C for 2–3 h and then refreezing at −80 °C for 12–24 h. The concentration of MPI8 after each storage period was determined using the calibration curve analyzed on the same day. The accuracy was expressed by RE%, and the precision was CV%.

The subject of another data set is cathepsin L. The conditions noted are these: selective over cathepsins B and K; cited from earlier work.
The mark [6] stands for this setting: male, Sprague-Dawley, in vivo, iv, rat, i.v. 5 mg/kg MPI8 sulfonate, NCA.
Where [7] appears, read: male, Sprague-Dawley, in vivo, rat, oral 50 mg/kg MPI8 sulfonate, NCA.
[8] abbreviates: rat, i.v. 5 mg/kg MPI8 sulfonate, NCA.
[9] abbreviates: Auto-sampler (10 °C 24 h), nominal 1.5 ng/mL.
The mark [10] stands for this setting: Auto-sampler (10 °C 24 h), nominal 25 ng/mL.
[11] abbreviates: Auto-sampler (10 °C 24 h), nominal 400 ng/mL.
Setting [12] is: Bench top (4 h, 4 °C), nominal 1.5 ng/mL.
The mark [13] stands for this setting: Bench top (4 h, 4 °C), nominal 25 ng/mL.
The mark [14] stands for this setting: Bench top (4 h, 4 °C), nominal 400 ng/mL.
[15] abbreviates: Freeze and thaw (−80 °C to 4 °C, 3 cycles), nominal 1.5 ng/mL.
[16] abbreviates: Freeze and thaw (−80 °C to 4 °C, 3 cycles), nominal 25 ng/mL.
Where [17] appears, read: Freeze and thaw (−80 °C to 4 °C, 3 cycles), nominal 400 ng/mL.
[18] abbreviates: Long-term (−80 °C, 20 days), nominal 1.5 ng/mL.
Setting [19] is: Long-term (−80 °C, 20 days), nominal 400 ng/mL.

For the compound `Cc1cc(=O)n(-c2ccccc2)n1C` [AP, antipyrine, reference compound], the “Stock solution stable for” value in data set [1] is 12 months.

Take `CC(C)C[C@H](NC(=O)OCc1ccccc1)C(=O)N[C@@H](C[C@@H]1CCNC1=O)C(O)S(=O)(=O)[O-].[Na+]` (stereo partly drawn) [GC376]: the “Conversion into active aldehyde form” value in data set [2] is “quickly convert”.

As to `CC(OC(C)(C)C)C(NC(=O)OCc1ccccc1)C(=O)NC(CC1CCCCC1)C(=O)NC(CC1CCNC1=O)C(O)S(=O)(=O)O` (stereo not drawn) [MPI8 sulfonate], the “Conversion of prodrug to MPI8 in vivo” value in data set [3] (in vivo, rats) is “rapid conversion; also recorded: rapidly converts”.

For orientation: AUC(0-inf) means total exposure, with the tail of the curve extrapolated. A lower AUC(0-inf) goes with less exposure. As a reminder, the MRT is a mean duration of stay, worked out from the concentration-time curve. In general, half-life refers to the time in which the quantity being followed falls by half. Read a high half-life as slow loss. As usually defined, the Tmax is the time from dosing to the highest level. As usually defined, the bioavailability is dose-corrected exposure relative to a reference, in per cent. In general, Cmax refers to the highest concentration seen after dosing. In general, EC50 refers to the concentration needed to bring the measured effect to its halfway point. Take `CC(OC(C)(C)C)C(NC(=O)OCc1ccccc1)C(=O)NC(CC1CCCCC1)C(=O)NC(C=O)CC1CCNC1=O` (stereo not drawn) [MPI8]: the C0 at 2 min in data set [3] (male, Sprague-Dawley, in vivo, iv, rat, i.v. 5 mg/kg MPI8 sulfonate, 2 min after dosing, read-out: Mean initial plasma concentration) is 4480 ng/mL. The concentration at 10 h in data set [3] (male, Sprague-Dawley, in vivo, iv, rat, i.v. 5 mg/kg MPI8 sulfonate, 10 h post-dose, read-out: Mean plasma concentration) worked out at 1.24 ng/mL. For the same compound, the AUC(0-inf) is 618 ± 15.7 ng·h/mL in data set [3] (setting [6]) and 1180 ± 288 ng·h/mL in data set [3] (setting [7]). Further, the figures for the MRT in data set [3] (setting [6]) and in data set [3] (setting [7]) were 0.54 ± 0.1 h and 2.52 ± 0.16 h, respectively. Besides, the half-life was 2.75 ± 0.53 h in data set [3] (setting [6]) and 1.22 ± 0.46 h in data set [3] (setting [7]). Also, the AUC(0-t) was determined as 613 ± 15.4 ng·h/mL in data set [3] (setting [6]) and 1180 ± 290 ng·h/mL in data set [3] (setting [7]). Besides, in data set [3] (male, Sprague-Dawley, in vivo, rat, oral 50 mg/kg MPI8 sulfonate, NCA, no unit in table (h)), the Tmax amounted to 2.17 ± 0.58 h. Moreover, the CL/F in data set [3] (male, Sprague-Dawley, in vivo, rat, oral 50 mg/kg MPI8 sulfonate, NCA, read-out: CL/F (converted)) is 733 mL/min/kg; in data set [3] (setting [8]), 110.116 ± 3.5637 mL/min/kg. For the same compound, the Vd/F in data set [3] (male, Sprague-Dawley, in vivo, rat, oral 50 mg/kg MPI8 sulfonate, NCA, read-out: Vz/F) is 81.6 L/kg. Further, the bioavailability in data set [3] (male, Sprague-Dawley, rat, in vivo, 50 mg/kg, rat, oral 50 mg/kg vs i.v. 5 mg/kg MPI8 sulfonate, read-out: F (oral bioavailability)) is 15.8%. Also, the Cmax came to 601 ng/mL in data set [3] (male, Sprague-Dawley, rat, in vivo, 50 mg/kg, oral 50 mg/kg MPI8 sulfonate) and 601 ± 75 ng/mL in data set [3] (male, Sprague-Dawley, rat, in vivo, 50 mg/kg, oral 50 mg/kg MPI8 sulfonate, NCA, no unit in table (ng/mL)). In data set [3] (setting [8]), the Vz/F is 26,324.66 ± 5882.81 ml/kg. Also, the Plasma concentration result in data set [3] (rat, i.v. 5 mg/kg MPI8 sulfonate, by 24 h) was “undetectable”. Also, the EC50 in data set [4] is 0.03 µM. The “Calculated concentration (Mean ± SD)” value is reported as 1.44 ± 0.11 ng/mL in data set [5] (setting [9]); 26.8 ± 1.91 ng/mL in data set [5] (setting [10]); 458.5 ± 47.18 ng/mL in data set [5] (setting [11]); 1.35 ± 0.11 ng/mL in data set [5] (setting [12]); 21.3 ± 0.12 ng/mL in data set [5] (setting [13]); 340.25 ± 14.03 ng/mL in data set [5] (setting [14]). Further, the “Calculated concentration (Mean ± SD)” value in data set [5] (setting [15]) is 1.33 ± 0.08 ng/mL; in data set [5] (setting [16]), 23.5 ± 1.41 ng/mL; in data set [5] (setting [17]) it was 362.2 ± 11.56 ng/mL; in data set [5] (setting [18]), 1.44 ± 0.19 ng/mL; in data set [5] (Long-term (−80 °C, 20 days), nominal 25 ng/mL) it was 25.18 ± 1.37 ng/mL; in data set [5] (setting [19]), 399 ± 17.61 ng/mL. The “Stability accuracy (RE%)” value was −4.33% in data set [5] (setting [9]); 7.20% in data set [5] (setting [10]); 14.63% in data set [5] (setting [11]); −9.87% in data set [5] (setting [12]); −14.80% in data set [5] (setting [13]); −14.94% in data set [5] (setting [14]). The “Stability accuracy (RE%)” value in data set [5] (setting [15]) is given as −11.17%; in data set [5] (setting [16]) it was −6.00%; in data set [5] (setting [17]), −9.45%; in data set [5] (setting [18]) it was −4.22%; in data set [5] (setting [19]) it was −0.25%. Also, the “Degradation under the experimental conditions” value in data set [5] (conditions of Table 4) is on record as “No significant degradation”. In addition, the “Stability at room temperature in rat plasma” value in data set [5] (room temperature) is “not stable”. The “Bench top stability accuracy (RE%)” value in data set [5] (room temperature, 50 ng/mL, n = 4) is given as −27.6%. In the data set on cathepsin L, the “Potency toward cathepsin L” value is “potent”. Further, the “Stock solution stable for” value in data set [1] turned out to be 3 months.

The values above are taken from paper PMC9228185, “Accurate Mass Identification of an Interfering Water Adduct and Strategies in Development and Validation of an LC-MS/MS Method for Quantification of MPI8, a Potent SARS-CoV-2 Main Protease Inhibitor, in Rat Plasma in Pharmacokinetic Studies” (Pharmaceuticals, 2022).
